{"source": "patent US12527773B2", "about": "“Flavi-block: a pan-flavivirus inhibitor” (Baden-Württemberg Stiftung GmbH, priority 2020, dated 2026)", "key": {"DENV1": {"test_system": "DENV1", "assay": "Plaque assay of released virus, DENV1-infected Vero cells", "assay_type": "cell-based", "details": "Dengue virus", "method": "(§1) Vero cells were infected with DENV1-4 at an MOI of 1 for 2 h (post infection, p.i., (A)), after which virus was removed, and fresh maintenance medium containing 2% FCS together with the indicated concentration of C10 added. For co-treat condition (c.t., (B)), Vero cells were infected with DENV1-4 at an MOI of 1 in the presence of C10 for 2 h, followed by removal of the virus/C10 inoculums, and addition of fresh 2% fetal calf serum maintenance medium. […] Results represent the mean ±SD for duplicate wells from a single assay, representative of 2 independent experiments (cf. Tables 2A and 2B, infra, for pooled data).\n(§2) Vero and BHK-21 cells were maintained in DMEM media supplemented with 10% heat-inactivated FBS at 37° C. in a humidified incubator supplemented with 5% CO2; A549 cells were maintained in F-12K medium supplemented with 10% heat-inactivated Fetal Bovine Serum (FBS), 2 mM L-glutamine, 50 U/I penicillin, 0.05 mg/l streptomycin. […] Viral titer was subsequently determined by plaque assay (see below).\n(§3) Vero cells were seeded into 24-well plates at a density of 2×10^5 cells/well and grown overnight in culture medium at 37° C. with 5% CO2 prior to infection with RSV, KUNV, ZIKV as indicated. […] The stain was removed by rinsing the cells with tap water, and the viral plaques were counted visually. […]"}, "HCV": {"test_system": "HCV", "assay": "IC50 in established virological assays (Table 1), HCV", "assay_type": "cell-based, Hepatitis C virus", "method": "(§4) In summary, a set of C10 derivatives (FIG. 12) was designed, synthesized and tested against HCV (which is considered as an established system to monitor drug effects against Flaviviridae) as well as DENV for comprehensive structure-activity relationship (SAR) analysis and target validation. IC50 and CC50 values for compound C10 were determined in established virological assays (Table 1). […] Further, said experiments underline the specificity of compound C10 for flaviviruses."}, "HIV": {"test_system": "HIV", "assay": "IC50 in established virological assays (Table 1), HIV", "assay_type": "cell-based", "method": "as §4"}, "[1]": {"test_system": "VP1 polyomavirus, LP1 HPV16, p24 HIV, BSA, GFP", "assay": "Specificity in the cross-linking assay: other capsid and non-related proteins", "assay_type": "biochemical", "method": "DSS was included as a positive control.\nTo study the specificity of C10, capsid proteins of other viruses (VP1 polyomavirus, LP1 HPV16, and p24 HIV) as well as non-related proteins (BSA, GFP), were incubated in the so-called cross-linking assay, with DSS or C10."}, "ZIKV": {"test_system": "ZIKV", "assay": "RT-qPCR analysis of virus genomes, ZIKV", "assay_type": "cell-based", "details": "Zika virus", "method": "as §1, with “ZIKV” for “DENV1-4”, “infection),” for “infection, p.i., (A)),”, “condition,” for “condition (c.t., (B)),”, “assay (cf. Table” for “assay, representative of”, “2” for “2 independent experiments (cf. Tables 2A and 2B, infra,”\n(§5) Viral RNA was extracted using Isolate II RNA extraction kit (Bioline), and the absolute number of RNA copies determined by Taqman One Step RT-qPCR (Applied Biosystems) by extrapolation from a standard curve generated from in vitro—transcribed virus RNA.\n(§6) It was decided to test the ability of C10 to inhibit the flaviviruses DENV1-4, KUNV and ZIKV, in addition to the paramyxovirus RSV, as a control."}, "DEN1/2": {"test_system": "DEN1/2", "assay": "IC50 in established virological assays (Table 1), DEN1/2", "assay_type": "cell-based", "details": "Dengue virus", "excerpt": "In summary, a set of C10 derivatives (FIG. 12) was designed, synthesized and tested against HCV (which is considered as an established system to monitor drug effects against Flaviviridae) as well as DENV for comprehensive structure-activity relationship (SAR) analysis and target validation."}, "MeV": {"test_system": "MeV", "assay": "IC50 in established virological assays (Table 1), MeV", "assay_type": "cell-based, Measles morbillivirus", "method": "as §4"}, "RSV": {"test_system": "RSV", "assay": "RT-qPCR analysis of virus genomes, RSV", "assay_type": "cell-based", "details": "human respiratory syncytial virus, c.t., read-out: EC50 from RT-qPCR analysis", "excerpt": "as §5, §6"}, "DENV4": {"test_system": "DENV4", "assay": "Plaque assay of released virus, DENV4-infected Vero cells", "assay_type": "cell-based", "details": "Dengue virus", "method": "as §1, §2, §3"}, "KUNV": {"test_system": "KUNV", "assay": "RT-qPCR analysis of virus genomes, KUNV", "assay_type": "cell-based, Kunjin virus", "details": "West Nile virus", "method": "Vero cells were infected with KUNV at an MOI of 1 for 2 h (post infection), after which virus was removed, and fresh maintenance medium containing 2% FCS together with the indicated concentration of C10 added. For co-treat condition, Vero cells were infected with KUNV at an MOI of 1 in the presence of C10 for 2 h, followed by removal of the virus/C10 inoculums, and addition of fresh 2% fetal calf serum maintenance medium.\nas §5, §6"}}, "note": "Read-outs that look alike come from different tables or passages of the source."}
{"smiles": "CCN1/C(=C\\C=C\\c2sc3cc(NC(C)=O)ccc3[n+]2CC)Sc2cc(NC(C)=O)ccc21.[I-]", "note": "[C10, 6-acetamido-2-((1E,3E)-3-(6-acetamido-3-ethylbenzo[d]thiazol-2(3H)-ylidene)prop-1-en-1-yl)-3-ethylbenzo[d]thiazol-3-ium iodide]", "values": [{"measurement": "EC50", "setting": "DENV1; read-out: EC50 from plaque assays, DENV1, c.t. (co-treat)", "result": 40, "unit": "nM"}, {"measurement": "EC50", "setting": "DENV1; read-out: EC50 from plaque assays, DENV1, p.i. (post infection)", "result": 110, "unit": "nM"}, {"measurement": "IC50", "setting": "HCV", "result": 180, "unit": "nM"}, {"measurement": "IC50", "setting": "HCV; Hepatitis C virus", "result": "~200", "unit": "nM"}, {"measurement": "activity against HIV", "setting": "HIV", "result": "does not act on HIV"}, {"measurement": "IC50", "setting": "HIV; Human immunodeficiency virus 1, HIV", "result": "> 100000", "unit": "nM"}, {"measurement": "crosslinking effect on other capsid and non-related proteins", "setting": "[1]", "result": "either no effect on these proteins or it starts at concentrations around 200 times higher than the IC50"}, {"measurement": "EC50", "setting": "ZIKV; read-out: EC50 from RT-qPCR analysis, ZIKV, c.t.", "result": 440, "unit": "nM"}, {"measurement": "EC50", "setting": "ZIKV; read-out: EC50 from RT-qPCR analysis, ZIKV, p.i.", "result": "1130 ± 1100", "unit": "nM"}, {"measurement": "IC50", "setting": "DEN1/2", "result": "110 to 180", "unit": "nM"}, {"measurement": "activity against Measles morbillivirus (MeV)", "setting": "MeV", "result": "inactive or has only minor activity"}, {"measurement": "IC50", "setting": "MeV; Measles morbillivirus, MeV", "result": "> 10000", "unit": "nM"}, {"measurement": "EC50", "setting": "RSV", "result": "830 ± 970", "unit": "nM"}, {"measurement": "EC50", "setting": "DENV4; read-out: EC50 from plaque assays, DENV4, c.t.", "result": 50, "unit": "nM"}, {"measurement": "EC50", "setting": "DENV4; read-out: EC50 from plaque assays, DENV4, p.i.", "result": 790, "unit": "nM"}, {"measurement": "EC50", "setting": "KUNV; read-out: EC50 from RT-qPCR analysis, KUNV, c.t.", "result": "310 ± 180", "unit": "nM"}, {"measurement": "EC50", "setting": "KUNV; read-out: EC50 from RT-qPCR analysis, KUNV, p.i.", "result": "1680 ± 640", "unit": "nM"}]}
